Data on three compounds can be found in patent publication US7083667B2, “Colorant compound, ink, ink tank, recording unit, recording apparatus and recording process” (Canon Kabushiki Kaisha, priority 2004, dated 2006).

The nature of this data set: Determination of solubility in chloroform at room temperature. The following applies: for Solubility: in chloroform, room temperature; for Solubility in chloroform (in words): nonpolar solvent. Type of data set: physicochemical. The procedure: Determination of Solubility
With respect to Colorant Compounds (5) to (16) obtained above, solubility in chloroform at room temperature was determined.

`CCOC(=O)c1ccccc1-c1c2cc/c(=N\c3c(C)cccc3C)cc-2oc2cc(Nc3c(C)cccc3C)ccc12.Cl` [Compound (5)]: the Solubility turned out to be 10.7 % by mass. For the compound `Cc1cccc(C)c1N=c1ccc2c(-c3ccccc3S(=O)(=O)O)c3ccc(Nc4c(C)ccc(S(=O)(=O)[O-])c4C)cc3oc-2c1.[Na+]` [C.I. Acid Red 289, reference compound], the “Solubility in chloroform (in words)” value is “not dissolved”. For the compound `CCOC(=O)c1ccccc1-c1c2cc/c(=N\c3c(C)cccc3C)cc-2oc2cc(Nc3c(C)cccc3C)ccc12` [Compound (6)], the “Solubility in chloroform (in words)” value was “higher solubility” and the Solubility is given as 20.5 % by mass.
